Results from US9399637B2, “Substituted heteroaryl compounds and methods of use” (Calitor Sciences, LLC, priority 2014, dated 2016).

Biological target: T1, JAK3 (h) (Homo sapiens, UniProt P52333)
T1 construct: purchased Millipore UK Ltd (assays run there as a service)
T1 sequence (P52333 1-1124): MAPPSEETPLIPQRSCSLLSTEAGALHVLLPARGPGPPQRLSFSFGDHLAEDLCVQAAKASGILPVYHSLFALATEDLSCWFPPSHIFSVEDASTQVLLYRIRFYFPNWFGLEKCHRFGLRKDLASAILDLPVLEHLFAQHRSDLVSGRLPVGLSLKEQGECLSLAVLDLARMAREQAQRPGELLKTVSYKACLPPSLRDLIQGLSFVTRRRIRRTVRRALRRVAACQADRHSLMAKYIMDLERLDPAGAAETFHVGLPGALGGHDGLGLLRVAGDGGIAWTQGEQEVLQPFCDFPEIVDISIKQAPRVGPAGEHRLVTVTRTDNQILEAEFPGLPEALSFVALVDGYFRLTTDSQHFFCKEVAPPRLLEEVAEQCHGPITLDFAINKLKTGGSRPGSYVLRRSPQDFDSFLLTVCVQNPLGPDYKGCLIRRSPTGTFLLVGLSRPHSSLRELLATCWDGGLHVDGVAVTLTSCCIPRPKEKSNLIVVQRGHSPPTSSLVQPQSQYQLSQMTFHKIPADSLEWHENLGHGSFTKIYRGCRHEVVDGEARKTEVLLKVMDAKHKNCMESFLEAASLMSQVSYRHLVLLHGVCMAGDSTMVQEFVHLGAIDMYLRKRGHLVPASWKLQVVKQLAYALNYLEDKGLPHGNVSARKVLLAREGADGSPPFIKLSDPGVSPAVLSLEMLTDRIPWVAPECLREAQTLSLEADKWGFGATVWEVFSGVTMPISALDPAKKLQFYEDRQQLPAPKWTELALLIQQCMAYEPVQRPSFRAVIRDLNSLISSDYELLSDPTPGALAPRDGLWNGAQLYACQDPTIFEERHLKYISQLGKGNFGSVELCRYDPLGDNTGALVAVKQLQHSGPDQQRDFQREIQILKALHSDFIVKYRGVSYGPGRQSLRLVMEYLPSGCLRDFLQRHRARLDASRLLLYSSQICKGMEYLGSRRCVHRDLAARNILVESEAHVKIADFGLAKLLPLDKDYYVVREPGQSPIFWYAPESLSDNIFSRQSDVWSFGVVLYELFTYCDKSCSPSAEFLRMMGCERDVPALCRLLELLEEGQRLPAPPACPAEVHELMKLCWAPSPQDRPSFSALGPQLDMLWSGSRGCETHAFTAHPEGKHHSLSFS
Assay: JAK3 kinase assay
Assay type: biochemical
Protocol: Kinase assays can be performed by measurement of incorporation of γ-^33P ATP into immobilized myelin basic protein (MBP). High binding white 384 well plates (Greiner) are coated with MBP (Sigma #M-1891) by incubation of 60 μL/well of 20 μg/mL MBP in Tris-buffered saline (TBS; 50 mM Tris pH 8.0, 138 mM NaCl, 2.7 mM KCl) for 24 h at 4° C. Plates are washed 3× with 100 μL TBS. Kinase reactions are carried out in a total volume of 34 μL in kinase buffer (5 mM Hepes pH 7.6, 15 mM NaCl, 0.01% bovine gamma globulin (Sigma #I-5506), 10 mM MgCl2, 1 mM DTT, 0.02% TritonX-100). Compound dilutions are performed in DMSO and added to assay wells to a final DMSO concentration of 1%. Each data point is measured in duplicate, and at least two duplicate assays are performed for each individual compound determination. Enzyme is added to final concentrations of 10 nM or 20 nM, for example. A mixture of unlabeled ATP and γ-^33P ATP is added to start the reaction (2×10^6 cpm of γ-^33P ATP per well (3000 Ci/mmole) and 10 μM unlabeled ATP, typically. The reactions are carried out for 1 h at room temperature with shaking Plates are washed 7× with TBS, followed by the addition of 50 μL/well scintillation fluid (Wallac). Plates are read using a Wallac Trilux counter. This is only one format of such assays; various other formats are possible, as known to one skilled in the art. […]

SMILES	IC50
Cc1c2ccc(Nc3ncc(Cl)c(NC4CC5CN(C(=O)CC#N)CC5C4)n3)cc2nn1C (centres unmarked) [Ex. 4, 3-(5-((5-chloro-2-((2,3-dimethyl-2H-indazol-6-yl)amino)pyrimidin-4-yl)amino)hexahydrocyclopenta[c]pyrrol-2(1H)-yl)-3-oxopropanenitrile]	535 nM
CC(=O)N1CCC2(CCC(Nc3nc(Nc4ccc5c(C)n(C)nc5c4)ncc3Cl)CC2)CC1 [Ex. 7, 1-(9-((5-chloro-2-((2,3-dimethyl-2H-indazol-6-yl)amino)pyrimidin-4-yl)amino)-3-azaspiro[5.5]undecan-3-yl)ethanone]	142 nM
